Data on 15 molecules can be found in ChEMBL document CHEMBL1146133, “Synthesis of benz[d]indeno[1,2-b]pyran-5,11-diones: versatile intermediates for the design and synthesis of topoisomerase I inhibitors” (2006).

Holding throughout (type): functional
One assay concerns SF-268. The assay is described as follows: Antiproliferative activity against human SF268 cell line.
Another assay deals with DU-145. Nature of the assay: Antiproliferative activity against human DU145 cell line.
Another assay deals with OVCAR-3. The assay is described as follows: Antiproliferative activity against human OVCAR-3 cell line.
The subject of another assay is HOP-62. The assay is described as follows: Antiproliferative activity against human HOP62 cell line.
Another assay concerns MDA-MB-435. The assay is described as follows: Antiproliferative activity against human MDA-MB-435 cell line.
The test system of a further assay is HCT-116. Nature of the assay: Antiproliferative activity against human HCT116 cell line.
The test system of the next assay is SN12C. The assay is described as follows: Antiproliferative activity against human SN12C cell line.
In the next assay the test system is UACC-62. The assay is described as follows: Antiproliferative activity against human UACC62 cell line.

Where only a bound is given, the exact number is not on record here.

With `O=C1c2ccccc2-c2c1c1ccccc1c(=O)n2CCN1CCOCC1`, the GI50 (in general, the concentration that inhibits growth by half) with SF-268 worked out at 85.1 µM.
As to `CN(C)CCCn1c2c(c3cc4c(cc3c1=O)OCO4)C(=O)c1ccccc1-2`, the GI50 in the assay with DU-145 is 2.04 µM; with OVCAR-3 it was 2.63 µM; with HOP-62 it was < 0.01 µM; with MDA-MB-435, 3.02 µM; with HCT-116, < 0.01 µM; in the assay on SN12C, 0.023 µM. In addition, the GI50 came out at 2.69 µM with SF-268 and 0.3 µM in the assay on UACC-62.
In the case of `O=C1c2ccccc2-c2c1c1ccccc1c(=O)n2CCCn1ccnc1`, the GI50 came to 1.41 µM in the assay on DU-145; 1.66 µM with OVCAR-3; 2.69 µM with HOP-62; 1.41 µM in the assay on HCT-116; 1.66 µM with SN12C; 2.34 µM with SF-268. The molecule also came in with a GI50 with UACC-62 of 0.79 µM.
Take `O=C1c2ccccc2-c2c1c1ccc([N+](=O)[O-])cc1c(=O)n2CCN1CCOCC1`: the concentration for 50% growth inhibition (GI50) with DU-145 is 61.7 µM; with OVCAR-3 it was > 100 µM; in the assay with HOP-62, 52.5 µM; in the assay with MDA-MB-435, > 100 µM; in the assay with HCT-116, > 100 µM; in the assay with SN12C it was 58.9 µM. Besides, the 50% growth inhibitory concentration (GI50) with UACC-62 was 83.2 µM.
On to `O=C1c2ccccc2-c2c1c1ccccc1c(=O)n2CCNCCO`, for which halving of growth in the assay with SF-268 (GI50) required 1.65 µM.
As for `COc1cc2c3c(n(CCN4CCOCC4)c(=O)c2cc1OC)-c1ccccc1C3=O`, the GI50 was > 100 µM in the assay with DU-145; > 100 µM in the assay with OVCAR-3; 89.1 µM with HOP-62; > 100 µM in the assay with MDA-MB-435; 60.3 µM with HCT-116; > 100 µM in the assay on SN12C. The values for the GI50 in the assay on SF-268 and in the assay on UACC-62 were > 100 µM and 56.2 µM, respectively.
Regarding `COc1cc2c3c(oc(=O)c2cc1OC)-c1ccccc1C3=O`, the concentration for 50% growth inhibition (GI50) with DU-145, in the assay with OVCAR-3, with MDA-MB-435, in the assay with HCT-116, in the assay with SN12C and with SF-268 was 100 µM throughout. In the assay on UACC-62, this molecule had a GI50 of 100 µM.
With `COc1cc2c(=O)oc3c(c2c(OC)c1OC)C(=O)c1ccccc1-3`, the GI50 in the assay with DU-145 is > 100 µM; with OVCAR-3 it was > 100 µM; with HOP-62 it was 53.7 µM; with MDA-MB-435 it was > 100 µM; in the assay on HCT-116, > 100 µM; in the assay on SN12C, > 100 µM. In addition, the GI50 in the assay on SF-268 and in the assay with UACC-62 was > 100 µM each time.
On to `O=C1c2ccccc2-c2c1c1ccc([N+](=O)[O-])cc1c(=O)n2CCCn1ccnc1`, for which, in the assay with SF-268, it took 0.016 µM to inhibit growth by half (GI50).
In the case of `O=C1c2ccccc2-c2oc(=O)c3cc4c(cc3c21)OCO4`, the 50% growth inhibitory concentration (GI50) is > 100 µM in the assay on DU-145; > 100 µM with OVCAR-3; 18.2 µM in the assay with HOP-62; > 100 µM with MDA-MB-435; 47.9 µM in the assay on HCT-116; > 100 µM in the assay on SN12C. The GI50 in the assay on SF-268 is > 100 µM; in the assay on UACC-62 it was 25.1 µM.
Take `CN(C)CCCn1c2c(c3ccc([N+](=O)[O-])cc3c1=O)C(=O)c1ccccc1-2`: the GI50 is 25.7 µM in the assay on OVCAR-3; > 100 µM in the assay on MDA-MB-435; 6.46 µM in the assay with HCT-116; 4.17 µM with SN12C; 7.08 µM in the assay with UACC-62.
As for `COc1cc2c3c(n(CCCN(C)C)c(=O)c2cc1OC)-c1ccccc1C3=O`, the GI50 with DU-145 is 4.47 µM; in the assay with OVCAR-3, 5.89 µM; in the assay with MDA-MB-435 it was 7.08 µM; in the assay on HCT-116 it was 2.45 µM; in the assay on SN12C, 11 µM; in the assay with SF-268, 6.17 µM. The molecule further came in with a concentration for 50% growth inhibition (GI50) with UACC-62 of 6.61 µM.
As for `O=C1c2ccccc2-c2oc(=O)c3cc([N+](=O)[O-])ccc3c21`, the GI50 in the assay with DU-145, with OVCAR-3, with HOP-62, in the assay on MDA-MB-435, in the assay with HCT-116 and in the assay with SN12C was > 100 µM throughout. The GI50 with SF-268 and in the assay on UACC-62 was > 100 µM throughout.
`COc1cc2c3c(n(CCCn4ccnc4)c(=O)c2cc1OC)-c1ccccc1C3=O`: the GI50 with SF-268 is < 0.01 µM.
On the same count and under the same terms, then `CC[C@@]1(O)C(=O)OCc2c1cc1n(c2=O)Cc2cc3ccccc3nc2-1` [CAMPTOTHECIN], with 0.01 µM.
